Seven molecules from US20260193644A1, “Compositions and Methods For Modulation of Tumor Suppressors and Oncogenes” (FLAGSHIP PIONEERING INNOVATIONS VII, LLC, priority 2022, published 2026) can be followed below.

Where “and” joins values, the source holds several entries; their conditions need not be identical. Identical values can stand only once.

Assay type in all cases: cell-based
Experiment [1] relates to U2OS cells. As to the kind of experiment: Caspase-Glo 3/7 apoptosis assay, peptide-treated U2OS cells. The settings on record: for z-score compared to vehicle control (peptides inducing significant apoptosis): listed = significant. On the procedure:
(§1) Cell Culture: Tumor cell lines HCT-116 (Colon Cancer Cell line, ATCC) and U2OS (Osteoscarcoma Cell line, ATCC) cells were grown adherently in ATCC-formulated McCoy's 5a medium supplemented with 10% FBS and 1× penicillin-streptomycin at 37° C. (5% CO2). Jurkat cells (acute T-cell leukemia cell line, ATCC) were grown as suspension cultures in ATCC-formulated RPMI-1640 supplemented with 10% FBS and 1× penicillin-streptomycin at 37° C. (5% CO2). HEP-G2 cells (Liver Cancer Cell line, ATCC) cells were grown adherently in ATCC-formulated Eagle's Minimum Essential Medium (EMEM) supplemented with 10% FBS and 1× penicillin-streptomycin at 37° C. (5% CO2).
(§2) Peptide Treatment: Target protein SEQ ID NO: 37997 was synthesized through Fluorenylmethyloxycarbonyl (Fmoc) protection group chemistry using Solid Phase Peptide Synthesis (SPPS). 5 μM of target peptide and control peptides were added to a 96 well plate containing 10,000 cells (100 μL/well). A white-walled 96-well plate adequate for cell culture and compatible with the luminometer was used. (Corning)
(§3) Apoptosis Assay: Following 24 hrs of peptide treatment, an equal volume reconstituted Caspase-Glo® 3/7 assay reagent mixture (Promega) was added to the cells. The contents of wells were gently mixed using a plate shaker at 300-500 rpm for 30 seconds. The plate was then Incubate at room temperature for 3 hours. The treated plates were then read for luminescence on Promega™ GloMax® Plate Reader. A blank reaction that contained caspase-Glo® 3/7 reagent, vehicle and cell culture medium without cells was used to measure background luminescence. The blank reaction values were subtracted from experimental values. A negative control that contained caspase-Glo® 3/7 reagent and vehicle-treated cells in medium was included to determine the basal caspase activity of the cell culture system. Significant difference in apoptosis was determined using ANOVA analysis by comparing cells treated with SEQ ID NO: 37997 peptide to cells treated with an irrelevant control peptide, or vehicle control treated cells.

The next experiment concerns HCT-116 cells. As to the kind of experiment: Caspase-Glo 3/7 apoptosis assay, peptide-treated HCT-116 cells. The note with it: for peptides inducing significant apoptosis (z-score vs vehicle control): listed = significant. On the procedure:
as §1, §2, §3

Experiment [2] concerns U2OS cells. As to the kind of experiment: WST-1 proliferation assay on U2OS cells treated with peptide. (Tetrazolium assays rely on reduction of a dye to a coloured formazan, in cell work by metabolically active cells.)
The test system of another experiment is HCT116 cells. As to the kind of experiment: WST-1 proliferation assay on HCT116 cells treated with peptide. On the procedure: Proliferation: HCT-116 cells were plated in 96 well plate (5,000 cells/well) grown in standard media supplemented with 10% FBS. After 48 hours incubation at 37° C. (5% CO2), the cells are subjected to the WST-1 ([…]) assay. The WST-1 assay (Sigma) is a measure of the metabolic activity (i.e. proliferative rate) of cells. […]

The test system of another experiment is Jurkat cells. As to the kind of experiment: Caspase-Glo 3/7 apoptosis assay, peptide-treated Jurkat cells. The settings on record: listed = significant. On the procedure:
as §1, §2, §3

Experiment [3] deals with HCT116 colon cancer cell line. As to the kind of experiment: WST-1 proliferation assay on HCT116 cells stably over-expressing target protein. The settings on record: 48 hours. Here is the method:
Over-expression: Stable over-expression tumor cell lines were made by transduction using lentivirus. For virus production, HEK-293T cells were cultured in DMEM with high glucose and GlutaMAX™ medium (ThermoFisher) supplemented with 10% FBS. After 24 h, cells were transfected using lipofectamine 3000 (ThermoFisher) of Lentiviral packaging plasmid mix (CELLECTA) and pGenLenti plasmids (GenScript Inc) containing: 1) no insert, 2) Target Protein encoding sequence, and 3) the AP2A1 protein (positive control for cell proliferation; https://doi.org/10.1038/sj.one.1205216), into HCT116 (Colon cancer cell line; ATCC). A Myc-tag (EQKLISEEDL) was added to the c-terminus of the expressed protein. After 48 hr post-transfection, culture media containing viruses was collected, loaded onto a 10 ml syringe and filtered through a 0.45 μm filter. For cell transduction, HCT116 colorectal cancer cells were seeded in 6-well plates, the virus was added to the cells. After post-transduction, stable cell mixed populations are selected for with puromycin for 14 days. Expression of the Target Protein and controls are confirmed by immunoblot of 50 μg of cell lysate using anti-myc-tag polyclonal antibody (CST).
Proliferation: Polyclonal cell lines that over-express the Target Protein or control, wild-type HCT-116 cells, were plated in 96 well plate (10,000 or 5,000 cells per well) grown in standard media in both low serum (0.1% FBS) and high serum (10% FBS) conditions, respectively. After 48 hours, the cells are subjected to the WST-1 ([…]) assay. The WST-1 assay (Sigma) is a measure of the metabolic activity of group of cells. The higher the metabolic activity the higher the proliferation rate. Significant differences in proliferation are determined by comparing protein-expressing cell lines with a stable cell line of the empty expression vector (control) using ANOVA analysis.

[4] abbreviates: Low sera (continued), 0.5 uM, head 3 SD.
Where [5] appears, read: Low sera (continued), 0.1 uM, head 4 SD.
[6] abbreviates: 5 μM peptide, 24 hrs, vs vehicle control.

As to “SEQ ID NO: 27193: ORF peptide; sequence only in Sequence Listing (LRFKVLLRVLFFMAPVPPQVFGQ; listed as Homo sapiens)”, the “z-score compared to vehicle control (peptides inducing significant apoptosis)” value in the experiment on U2OS cells [1] is reported as “SEQ ID NO: 27193”. Moreover, in the experiment with HCT-116 cells, the “peptides inducing significant apoptosis (z-score vs vehicle control)” value is listed as “SEQ ID NO: 27193”. Moreover, the “proliferation hit score, High sera” value turned out to be 15.33 SD with U2OS cells [2] (5 uM, head 5 SD); 1.079 SD in the experiment on HCT116 cells (0.5 uM, head 3 SD); 0.8327 SD with HCT116 cells (5 uM, head 3 sd). Moreover, the “proliferation hit score, Low sera” value with U2OS cells [2] (setting [4]) is recorded as 1.975 SD; in the experiment on U2OS cells [2] (Low sera, 5 uM, head 2 SD) it was 2.319 SD; with HCT116 cells (setting [4]) it was 1.081 SD; in the experiment with HCT116 cells (Low sera, 5 uM, head 2 SD) it was 0.6897 SD. In addition, the “peptides inducing significant apoptosis vs vehicle control” value with Jurkat cells was “SEQ ID NO: 27193”.

As to “SEQ ID NO: 29485: ORF peptide; sequence only in Sequence Listing (MRSPLSASALLLWSSSVARAFSSPSLLMAVPSPTCSRY; listed as Homo sapiens)”, in the experiment on HCT-116 cells, the “peptides inducing significant apoptosis (z-score vs vehicle control)” value was “SEQ ID NO: 29485”. Besides, the “proliferation hit score, Low sera” value in the experiment on U2OS cells [2] (setting [5]) is 2.026 SD and 1.922 SD; with U2OS cells [2] (Low sera, 1 uM, head 5 SD), 3.795 SD and 2.322 SD; with U2OS cells [2] (Low sera, 10 uM, head 6 SD) it was 5.612 SD and 4.323 SD. In addition, in the experiment with Jurkat cells, the “peptides inducing significant apoptosis vs vehicle control” value is “SEQ ID NO: 29485”.

Take “SEQ ID NO: 34296: ORF peptide; sequence only in Sequence Listing (MFFCRNYGSFWFYVLSKMLSFFICLLIFVHLLLLSFLISDWPPPTGSAEHKYSG; listed as Homo sapiens)”: in the experiment with Jurkat cells, the “peptides inducing significant apoptosis vs vehicle control” value is reported as “SEQ ID NO: 34296”.

Turning to “SEQ ID NO: 36828: ORF peptide; sequence only in Sequence Listing (MAIFFFFCIIVSSLPTAELGTENACSTCLLNE; listed as Homo sapiens)”, in the experiment on U2OS cells [1], the “z-score compared to vehicle control (peptides inducing significant apoptosis)” value is “SEQ ID NO: 36828”. Further, the “peptides inducing significant apoptosis vs vehicle control” value in the experiment with Jurkat cells is recorded as “SEQ ID NO: 36828”.

On to “SEQ ID NO: 37997: synthetically produced target protein, secreted tumor suppressor; sequence only in Sequence Listing (MSRLSLSWESLTNAIWPLDLQDIKGYLPNPLPQRVNLRKQILSISKEPN; listed as Homo sapiens)”, for which the basal apoptosis levels result with U2OS cells [1] (setting [6]) and in the experiment on HCT-116 cells (setting [6]) was “increase in basal apoptosis levels” each time. In addition, the “proliferation hit score, High sera” value was −5.9599 SD in the experiment with U2OS cells [2] (1 uM, head 5 SD); −13.23 SD with U2OS cells [2] (10 uM, head 8 SD); −3.114 SD in the experiment on HCT116 cells (0.1 uM, head 3 SD); −5.8 SD in the experiment with HCT116 cells (1 uM, head 2 SD); −11.51 SD with HCT116 cells (10 uM, head 4 SD). Further, the “proliferation hit score, Low sera” value is listed as −2.359 SD in the experiment on U2OS cells [2] (Low sera (continued), 0.1 uM, head 2 SD); 1.922 SD in the experiment on U2OS cells [2] (setting [5]); 0.3203 SD in the experiment on U2OS cells [2] (Low sera, 1 uM, head 5 SD); −16.09 SD in the experiment on U2OS cells [2] (Low sera, 10 uM, head 6 SD); −3.015 SD in the experiment on HCT116 cells (Low sera, 1 uM, head 3 SD); −6.915 SD in the experiment with HCT116 cells (Low sera, 10 uM, head 3 SD). The “proliferation (WST-1) vs irrelevant peptide or untreated cells” value in the experiment with HCT116 cells (10 μM, 10% serum, 48 hours) was “significantly decreases proliferation”.

B1: SEQ ID NO: 27301: target protein over-expressed (Myc-tagged) in stable HCT116 cell line; oncogene (protein, listed as Homo sapiens)
chain: MVEKSHPSSLPTLPQPLNHCPETYMLLSAAPSGASQLLSTLTLFLKKHRMDIRTISLRMLLSHTGKLAL
modifications: Myc tag
notes: oncogene
As to B1, the “proliferation (WST-1) on over-expression vs Empty Vector” value in experiment [3] (high serum (10% FBS)) and in experiment [3] (low serum (0.1% FBS)) was “significantly increases proliferation” each time.

B2: SEQ ID NO: 27000: ORF peptide; sequence only in Sequence Listing (peptide, listed as Homo sapiens)
chain: MNLNPRLRLQVISFHPHPKALAVTLLPALTQSLCLCMASCVYSGPKGFLFLFFPQTAQEKHMKNIT
On to B2, for which, in the experiment on U2OS cells [1], the “z-score compared to vehicle control (peptides inducing significant apoptosis)” value is on record as “SEQ ID NO: 27000”. For the same molecule, in the experiment on HCT-116 cells, the “peptides inducing significant apoptosis (z-score vs vehicle control)” value was “SEQ ID NO: 27000”. In addition, the “proliferation hit score, Low sera” value in the experiment with U2OS cells [2] (setting [5]) was 7.758 SD and 7.542 SD; in the experiment on U2OS cells [2] (Low sera, 1 uM, head 5 SD), 5.685 SD and 9.031 SD. In addition, the “peptides inducing significant apoptosis vs vehicle control” value in the experiment with Jurkat cells is reported as “SEQ ID NO: 27000”.
